Where “and” joins values, the source holds several entries; their conditions need not be identical. Identical values can stand only once.
Columns and labels:
Format in all cases: cell-based
[1] = tested on: SEAP expression in HEK293T cells; experiment: Background signal of SEAP reporter and single-construct controls
Method: Supplementary Figure 7: Dose-dependence and reversibility characterization of CDHs in CDH- […]
(§1) transfected with SEAP reporter S132 and treated with 1 µM Drugs 12 hours post transfection.
(§2) Quantification of SEAP was performed 24 hours after drug treatment. b) Drug specificity of CDH-TFs. […]
Background signal of SEAP reporter in the absence of the CDH-GEMS system. HEK293T cells were transfected with pLS566 SEAP reporter plasmids and treated with drugs. Quantification of SEAP was performed 24 hours post drug treatment. f) SEAP activity upon transfecting single or paired […]
Quantification of SEAP activity of three CDHs with DMSO (dark color), specific (light color) and unspecific drug treatment (gray). […]
(culture medium) in panels of b, c, f and g were collected every 12 hours. Values were normalized to zero based on the SEAP expression at time 0. a, b, e, f, g) The bar charts show the mean ± s.d. of n = 3 biologically independent samples overlaid with a scatter dot plot of the original data points.

[2] = tested on: Gal4/UAS SEAP expression in HEK293T cells; experiment: Drug specificity of CDH-TFs; settings: Suppl Fig 7b
Method: Supplementary Figure 7: Dose-dependence and reversibility characterization of CDHs in CDH-
a) Background signal of SEAP reporter in the absence of the CDH-TF system. HEK239T cells were
as §1, §2

[3] = tested on: SEAP and Luciferase expression in HEK293T cells; experiment: MIMO designer cells (AIR-1/2-GEMS + CDH-3-TF); settings: for SEAP: Fig5c, turn ON via AIR-2-GEMS
From the text: We first engineered MIMO cells to respond to two drugs with distinct outputs (Fig. 5a) by co-transfecting the CDH-3-TF with either AIR-1-GEMS (Fig. 5b) or AIR-2-GEMS (Fig. 5c).
Fig. 5 Orthogonal chemical switches enable implementation of multi-input multi-output control modes in mammalian cells. a Scheme of multi-inputs multi-outputs (MIMO) designer cells where two drugs control two different outputs. b, c Cells were co-transfected with AIR-1/2-GEMS and CDH-3-TF regulate SEAP and Luciferase expression, respectively. […] AIR-1/2-GEMS coupled with SEAP expression circuits were co-transfected with CDH-1/2-TF circuits which control the Luciferase production. Respective drug concentrations ranged from 0.001 nM to 1 µM. All values presented are mean ± s.d. of three replicates and curves were fitted by four-parameters nonlinear regression. b, c, e, f, h, i Source data are available in the source data file.
Supplementary Figure 13: Orthogonal chemical switches enable implementation of multi-input multi-output control modes in mammalian cells. a) Dual drug toxicity tests in 293T cells. […]
concentrations of 1 nM, 10 nM, 100 nM and 1000 nM each drug in cell culture medium. CCK8 assay was performed 24 hours after drug treatment. Each bar represents the mean of three biological replicates ± s.d, overlaid with a scatter dot plot of the original data points. b-c) Cells were co-transfected with AIR-1-GEMS and CDH-3-TF regulate SEAP and Luciferase expression, respectively. Drug concentrations ranged from 0.001 nM to 1 µM and different combinations were added depending on the protein components, Drug-1 only (b) and Drug-3 only (c). d-e) Cells were co-transfected with AIR-2-GEMS and CDH-3-TF regulate SEAP and Luciferase expression, respectively. Drug concentrations ranged from 0.001 nM to 1 µM and different combinations were added depending on the protein […]
1-TF and CDH-3-TF circuits. Drug-1 concentrations ranged from 0.001 nM to 1 µM (left) and 1 µM Drug-1 with serial diluted Drug-3 from 0.001 nM to 1 µM (right). g) Quantification of SEAP activity controlled by CDH-1-GEMS and CDH-3-GEMS circuits. Drug-1 concentrations ranged from 0.001 nM to 1 µM (left) and Drug-3 dilution along with 1 µM Drug-1 (right). h-i) Quantification of SEAP and Luciferase activities under Drug-1. AIR-1-GEMS coupled with SEAP expression circuits (i) and CDH-1-TF circuits which control the Luciferase production (j). j-k) Quantification of SEAP and Luciferase activities under Drug-2. AIR-2-GEMS coupled with SEAP expression circuits (k) and CDH-2-TF circuits which control the Luciferase production (l). b-k) Each data point represents the mean of n = 3 biological replicates, and the dose-dependent curve were fitted using four-parameter nonlinear regression.

[4] = Suppl Fig 7a, TF reporter (S132) only
[5] = Suppl Fig 7e, GEMS reporter (pLS566) only
[6] = Fig5c SEAP via AIR-2-GEMS, four-parameter fit

CN(C)CC#Cc1ccc(OCCCc2sc(N3CCc4cccc(C(=O)Nc5nc6ccccc6s5)c4C3)nc2C(=O)O)c(F)c1 [Drug-1, A-1155463]
Reporter background signal [1, 4]: 2.1563 and 2.182 and 2.388
Reporter background signal [1, 5]: 2.888 and 3.062 and 3.039
Reporter signal, drug specificity ([2]; CDH1): 10.7853 and 9.721 and 10.2555
Reporter signal, drug specificity ([2]; CDH3): 120.91 and 123.106 and 130.139
AIR-1-GEMS controlled SEAP expression ([3]; Fig S13b, Drug-1 0.01 nM): 2.034 U/L and 2.266 U/L and 2.426 U/L
CDH-3-TF controlled Luciferase expression ([3]; Fig S13b, Drug-1 0.01 nM): 63197 RLU and 77075 RLU and 76343 RLU
AIR-1-GEMS controlled SEAP expression ([3]; Fig S13b, Drug-1 0.1 nM): 2.577 U/L and 3.504 U/L and 1.937 U/L
CDH-3-TF controlled Luciferase expression ([3]; Fig S13b, Drug-1 0.1 nM): 69663 RLU and 84855 RLU and 75827 RLU
AIR-1-GEMS controlled SEAP expression ([3]; Fig S13b, Drug-1 1 nM): 2.677 U/L and 2.7744 U/L and 2.999 U/L
CDH-3-TF controlled Luciferase expression ([3]; Fig S13b, Drug-1 1 nM): 81097 RLU and 77144 RLU and 82001 RLU
AIR-1-GEMS controlled SEAP expression ([3]; Fig S13b, Drug-1 3.16 nM): 4.756 U/L and 3.455 U/L and 4.71 U/L
CDH-3-TF controlled Luciferase expression ([3]; Fig S13b, Drug-1 3.16 nM): 79328 RLU and 72559 RLU and 71332 RLU
AIR-1-GEMS controlled SEAP expression ([3]; Fig S13b, Drug-1 10 nM): 14.6262 U/L and 14.8753 U/L and 12.6214 U/L
CDH-3-TF controlled Luciferase expression ([3]; Fig S13b, Drug-1 10 nM): 80379 RLU and 81140 RLU and 95805 RLU
AIR-1-GEMS controlled SEAP expression ([3]; Fig S13b, Drug-1 31.6 nM): 24.9389 U/L and 23.1767 U/L and 24.3137 U/L
CDH-3-TF controlled Luciferase expression ([3]; Fig S13b, Drug-1 31.6 nM): 89062 RLU and 83795 RLU and 94983 RLU
AIR-1-GEMS controlled SEAP expression ([3]; Fig S13b, Drug-1 100 nM): 28.6367 U/L and 35.4252 U/L and 28.7763 U/L
CDH-3-TF controlled Luciferase expression ([3]; Fig S13b, Drug-1 100 nM): 85794 RLU and 82597 RLU and 83527 RLU
AIR-1-GEMS controlled SEAP expression ([3]; Fig S13b, Drug-1 316 nM): 33.0089 U/L and 34.8793 U/L and 29.7782 U/L
CDH-3-TF controlled Luciferase expression ([3]; Fig S13b, Drug-1 316 nM): 82096 RLU and 72932 RLU and 89789 RLU
AIR-1-GEMS controlled SEAP expression ([3]; Fig S13b, Drug-1 1000 nM): 37.3806 U/L and 38.9993 U/L and 31.1376 U/L
CDH-3-TF controlled Luciferase expression ([3]; Fig S13b, Drug-1 1000 nM): 73138 RLU and 75381 RLU and 85198 RLU

CC1(C)CCC(CN2CCN(c3ccc(C(=O)NS(=O)(=O)c4ccc(NCC5CCOCC5)c([N+](=O)[O-])c4)c(Oc4cnc5[nH]ccc5c4)c3)CC2)=C(c2ccc(Cl)cc2)C1 [Drug-2, Venetoclax]
Reporter background signal [1, 4]: 2.167 and 2.065 and 2.282
Reporter background signal [1, 5]: 2.782 and 3.488 and 3.279
Reporter signal, drug specificity ([2]; CDH2): 31.2802 and 28.6812 and 29.088
Bottom (best-fit value) [3, 6]: 11.58
HillSlope (best-fit value) [3, 6]: 0.4637
Span (best-fit value) [3, 6]: 174.4
Top (best-fit value) [3, 6]: 186
logIC50 (best-fit value) ([3]; Fig5c SEAP via AIR-2-GEMS, four-parameter fit, drug in nM): 2.821
SEAP ([3]; 0.1 nM): 16.9661 U/L and 14.3649 U/L and 16.0293 U/L
SEAP ([3]; 0.5 nM): 32.7217 U/L and 18.5086 U/L and 20.3629 U/L
SEAP ([3]; 1 nM): 9.507 U/L and 8.828 U/L and 9.449 U/L
SEAP ([3]; 5 nM): 12.4048 U/L and 14.8898 U/L and 15.5553 U/L
SEAP ([3]; 10 nM): 53.9453 U/L and 51.1 U/L and 44.2357 U/L
SEAP ([3]; 50 nM): 67.8694 U/L and 53.3505 U/L and 65.0318 U/L
SEAP ([3]; 500 nM): 99.6195 U/L and 87.3604 U/L and 83.3391 U/L
SEAP ([3]; 1000 nM): 116.832 U/L
AIR-2-GEMS controlled SEAP expression ([3]; Fig S13d, Drug-2 0.01 nM): 59.8517 U/L and 85.418 U/L and 69.2527 U/L
CDH-3-TF controlled Luciferase expression ([3]; Fig S13d, Drug-2 0.01 nM): 46959 RLU and 46941 RLU and 46901 RLU
AIR-2-GEMS controlled SEAP expression ([3]; Fig S13d, Drug-2 0.1 nM): 118.67 U/L and 114.835 U/L and 107.758 U/L
CDH-3-TF controlled Luciferase expression ([3]; Fig S13d, Drug-2 0.1 nM): 41162 RLU and 49637 RLU and 46127 RLU
AIR-2-GEMS controlled SEAP expression ([3]; Fig S13d, Drug-2 1 nM): 115.899 U/L and 181.597 U/L and 152.021 U/L
CDH-3-TF controlled Luciferase expression ([3]; Fig S13d, Drug-2 1 nM): 45977 RLU and 44865 RLU and 47068 RLU
AIR-2-GEMS controlled SEAP expression ([3]; Fig S13d, Drug-2 3.14 nM): 134.444 U/L and 173.229 U/L and 165.776 U/L
CDH-3-TF controlled Luciferase expression ([3]; Fig S13d, Drug-2 3.14 nM): 43947 RLU and 39268 RLU and 39254 RLU
AIR-2-GEMS controlled SEAP expression ([3]; Fig S13d, Drug-2 10 nM): 190.854 U/L and 240.534 U/L and 260.228 U/L
CDH-3-TF controlled Luciferase expression ([3]; Fig S13d, Drug-2 10 nM): 47016 RLU and 49191 RLU and 50470 RLU
AIR-2-GEMS controlled SEAP expression ([3]; Fig S13d, Drug-2 31.4 nM): 299.546 U/L and 359.696 U/L and 315.099 U/L
CDH-3-TF controlled Luciferase expression ([3]; Fig S13d, Drug-2 31.4 nM): 45761 RLU and 44242 RLU and 45130 RLU
AIR-2-GEMS controlled SEAP expression ([3]; Fig S13d, Drug-2 100 nM): 326.848 U/L and 345.031 U/L and 379.553 U/L
CDH-3-TF controlled Luciferase expression ([3]; Fig S13d, Drug-2 100 nM): 45390 RLU and 42062 RLU and 45223 RLU
AIR-2-GEMS controlled SEAP expression ([3]; Fig S13d, Drug-2 314 nM): 491.977 U/L and 483.914 U/L and 518.642 U/L
CDH-3-TF controlled Luciferase expression ([3]; Fig S13d, Drug-2 314 nM): 40043 RLU and 38537 RLU and 34569 RLU
AIR-2-GEMS controlled SEAP expression ([3]; Fig S13d, Drug-2 1000 nM): 386.41 U/L and 334.548 U/L and 408.363 U/L
CDH-3-TF controlled Luciferase expression ([3]; Fig S13d, Drug-2 1000 nM): 40262 RLU and 37715 RLU and 45464 RLU
IC50 ([3]; Homo sapiens, HEK-293T, Fig5c SEAP turn ON via AIR-2-GEMS, four-parameter fit, given as IC50, read-out: IC50 (best-fit value)): 662 nM
